Compound: Cn1cc(-c2cnn3c(N)c(Br)c([C@@H]4CCCNC4)nc23)cn1
Assay: relative viability (nuclei count vs DMSO), 5 days (fraction); higher = more cells survive
Outline: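 Acceptance criteria were a control CV below 25% and at least one doubling per plate. Lung cancer cell lines in 1536-well plates got five library-drug doses (not always all listed) √10 apart by pinning and were left 5 days with no medium change. Viability divides treated-well nuclei by vehicle-well nuclei and is the median across plates. Nuclei were counted by MetaXpress from 4× Hoechst images.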

Cell Line | relative viability (0.05 µM) | relative viability (0.1581 µM) | relative viability (0.5 µM) | relative viability (1.581 µM) | relative viability (5 µM)
201T | 0.972 | 1.01 | 0.996 | 0.86 | 0.746
A549 | 1.01 | 1.07 | 0.946 | 0.847 | 0.813
A-427 | 1.04 | 0.919 | 1.01 | 0.784 | 0.607
ABC-1 | 0.938 | 0.988 | 0.758 | 0.566 | 0.455
BEN | 1.05 | 0.902 | 0.904 | 0.972 | 0.834
CAL-12T | 1.03 | 1.06 | 1.08 | 0.68 | 0.265
COR-L23 | 1.08 | 1.26 | 1.11 | 0.803 | 0.45
COR-L 105 | 0.85 | 0.85 | 0.843 | 0.705 | 0.656
Calu-6 | 1.06 | 0.905 | 0.828 | 0.438 | 0.219
ChaGo-K-1 | 0.99 | 1.08 | 1.09 | 0.89 | 0.997
EBC-1 | 1.12 | 1.16 | 0.882 | 0.822 | 0.869
EKVX | 1.04 | 1.01 | 1.07 | 0.862 | 0.929
EMC-BAC-2 | 0.917 | 1.03 | 0.976 | 0.949 | 0.827
EPLC-272H | 1 | 0.974 | 0.896 | 0.628 | 0.379
H3255 | 1.02 | 0.935 | 1.03 | 0.974 | 0.57
HARA | 0.975 | 1.03 | 1.31 | 0.761 | 0.301
HCC-15 | 1.07 | 1.08 | 1.06 | 0.928 | 0.936
HCC-44 | 0.918 | 1.06 | 1.01 | 0.994 | 0.953
HCC-78 | 1 | 1.04 | 1.09 | 0.957 | 0.749
HCC-366 | 1.04 | 1.04 | 0.984 | 1.06 | 0.944
HCC-827 | 0.971 | 1.08 | 1.07 | 1.12 | 0.945
HOP-62 | 1.07 | 1.16 | 0.956 | 1.01 | 0.812
IA-LM | 0.917 | 0.976 | 1.05 | 0.779 | 0.541
LC-2-ad | 1.02 | 1.05 | 1.02 | 0.899 | 1.04
LCLC-97TM1 | 0.982 | 1.11 | 1.1 | 0.969 | 0.925
LCLC-103H | 1.03 | 0.986 | 1.05 | 0.909 | 1.03
LK-2 | 1.04 | 0.951 | 0.836 | 0.729 | 0.711

Cell Line | relative viability (0.05 µM) | relative viability (0.1581 µM) | relative viability (0.5 µM) | relative viability (1.581 µM) | relative viability (5 µM)
LOU-NH91 | 0.949 | 0.985 | 0.937 | 0.952 | 0.811
LU99A | 0.952 | 0.985 | 0.901 | 0.949 | 0.926
LXF-289 | 1.03 | 1.14 | 1.03 | 1.01 | 1.06
NCI-H23 | 0.91 | 1.02 | 0.925 | 0.573 | 0.272
NCI-H322M | 0.766 | 0.842 | 0.863 | 0.684 | 0.408
NCI-H358 | 0.988 | 1.1 | 0.877 | 0.771 | 0.749
NCI-H441 | 1.28 | 1.26 | 1.15 | 0.862 | 1.31
NCI-H460 | 0.946 | 1.1 | 0.993 | 0.952 | 0.811
NCI-H520 | 0.897 | 0.998 | 0.899 | 0.904 | 0.717
NCI-H522 | 0.927 | 0.986 | 0.879 | 0.828 | 1.02
NCI-H596 | 0.985 | 1.15 | 0.887 | 0.916 | 0.766
NCI-H647 | 0.937 | 1.07 | 0.972 | 0.769 | 0.417
NCI-H650 | 0.994 | 0.875 | 1.03 | 0.844 | 0.715
NCI-H661 | 1.01 | 0.977 | 1.03 | 1.01 | 0.772
NCI-H727 | 0.964 | 1.07 | 0.941 | 0.82 | 0.57
NCI-H838 | 0.955 | 1.06 | 0.882 | 0.885 | 0.878
NCI-H1299 | 1.03 | 1.07 | 1.01 | 0.926 | 0.795
NCI-H1355 | 0.973 | 1.07 | 1.04 | 0.919 | 0.883
NCI-H1395 | 0.813 | 0.713 | 0.926 | 0.548 | 0.45
NCI-H1437 | 1.02 | 1.11 | 1.06 | 0.847 | 0.832
NCI-H1563 | 0.941 | 0.878 | 0.966 | 0.942 | 0.873
NCI-H1648 | 0.926 | 0.958 | 0.669 | 0.749 | 0.83
NCI-H1650 | 0.862 | 1.08 | 1.12 | 0.707 | 0.494
NCI-H1651 | 1.01 | 0.993 | 0.917 | 0.783 | 0.503
NCI-H1666 | 1.02 | 1.04 | 1.02 | 0.981 | 0.875
NCI-H1703 | 0.925 | 0.664 | 0.529 | 0.347 | 0.159
NCI-H1734 | 0.916 | 1.1 | 0.963 | 0.78 | 0.793

Cell Line | relative viability (0.05 µM) | relative viability (0.1581 µM) | relative viability (0.5 µM) | relative viability (1.581 µM) | relative viability (5 µM)
NCI-H1755 | 1.07 | 1.06 | 1 | 0.887 | 0.882
NCI-H1792 | 0.869 | 1.08 | 0.96 | 0.575 | 0.835
NCI-H1793 | 1.07 | 1.12 | 0.927 | 0.91 | 0.786
NCI-H1915 | 0.984 | 0.998 | 0.971 | 0.868 | 0.969
NCI-H1944 | 0.947 | 1.07 | 0.929 | 0.713 | 0.481
NCI-H1975 | 1.03 | 0.922 | 0.908 | 0.803 | 0.847
NCI-H1993 | 0.846 | 0.942 | 0.955 | 0.716 | 0.794
NCI-H2009 | 1.03 | 1.05 | 0.981 | 0.931 | 0.858
NCI-H2023 | 0.982 | 0.89 | 0.705 | 0.304 | 0.167
NCI-H2085 | 0.996 | 1.12 | 1.04 | 0.932 | 0.853
NCI-H2087 | 1.15 | 1.31 | 1.02 | 0.948 | 0.898
NCI-H2126 | 0.986 | 1.07 | 1 | 0.899 | 0.95
NCI-H2170 | 0.991 | 1.03 | 0.93 | 1.01 | 1.07
NCI-H2228 | 1.08 | 1.1 | 0.927 | 0.6 | 0.554
NCI-H2342 | 0.974 | 1.23 | 1.05 | 0.947 | 0.91
NCI-H2347 | 0.987 | 1.09 | 1.2 | 0.953 | 0.853
NCI-H2405 | 0.935 | 1.01 | 0.959 | 0.983 | 0.769
NCI-H3122 | 1.03 | 1.03 | 1.03 | 1.06 | 1.1
PC-3 [JPC-3] | 0.957 | 1.01 | 1.01 | 1.02 | 1.03
PC-14 | 1.04 | 1.01 | 1.01 | 0.707 | 0.425
RERF-LC-KJ | 1.05 | 1.01 | 1.01 | 0.859 | 0.896
SK-LU-1 | 1.18 | 0.696 | 0.809 | 0.432 | 0.268
SK-MES-1 | 1.09 | 1.08 | 0.979 | 0.606 | 0.34
SW 900 | 0.87 | 0.881 | 1 | 0.669 | 0.309
SW 1573 | 0.93 | 1.07 | 1.12 | 0.924 | 0.894
UMC-11 | 1.08 | 0.873 | 0.856 | 0.788 | 0.565
